Values quoted from earlier work as cited in patent US20100234388A1, “SUBSTITUTED PDE5 INHIBITORS” (AUSPEX PHARMACEUTICALS, INC., priority 2006, published 2010).

Tests used:
[1] = human, in vivo
[2] = tested on: PDE5 versus PDE6; conditions: compared with sildenafil and vardenafil
[3] = human, in vivo; remark: listed apart in the source

## CN1CC(=O)N2[C@H](c3ccc4c(c3)OCO4)c3[nH]c4ccccc4c3C[C@@H]2C1=O [tadalafil, Tadalafil]
[1]
  exercise tolerance: improve exercise tolerance
[2]
  selectivity for PDE5 versus PDE6: much more selective
[3]
  patients with side effects of chromatopsia, increased sensitivity to light, and blurred vision: less than 0.1%
